# Calls of active or inactive are those of the source. The calls are words filed in the database; no cut-off is given here.
# Legend:
# [1] = biological target: T1, Mitogen-activated protein kinase kinase kinase 7 (Homo sapiens, UniProt O43318); assay: Inhibition of TAK1 (unknown origin)
# T1 sequence (O43318 whole entry): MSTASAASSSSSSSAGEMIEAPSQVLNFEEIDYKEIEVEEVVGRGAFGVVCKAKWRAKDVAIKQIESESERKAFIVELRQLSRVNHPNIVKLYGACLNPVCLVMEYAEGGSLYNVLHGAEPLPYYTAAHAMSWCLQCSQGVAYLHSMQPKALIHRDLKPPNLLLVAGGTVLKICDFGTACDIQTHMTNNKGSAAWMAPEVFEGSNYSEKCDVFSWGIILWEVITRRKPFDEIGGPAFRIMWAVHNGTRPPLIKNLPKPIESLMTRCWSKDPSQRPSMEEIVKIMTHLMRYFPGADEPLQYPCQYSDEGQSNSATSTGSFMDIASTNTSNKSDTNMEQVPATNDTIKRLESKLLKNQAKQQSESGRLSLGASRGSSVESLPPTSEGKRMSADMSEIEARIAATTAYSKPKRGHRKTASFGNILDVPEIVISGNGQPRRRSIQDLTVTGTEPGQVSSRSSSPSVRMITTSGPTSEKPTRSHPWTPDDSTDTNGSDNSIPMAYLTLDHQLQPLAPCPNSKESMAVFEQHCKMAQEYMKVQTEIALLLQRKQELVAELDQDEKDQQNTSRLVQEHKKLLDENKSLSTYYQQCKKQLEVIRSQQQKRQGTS
# [2] = biological target: T2, Mitogen-activated protein kinase kinase kinase 5 (Homo sapiens, UniProt Q99683); assay: Inhibition of ASK1 (unknown origin)
# T2 sequence (Q99683 whole entry): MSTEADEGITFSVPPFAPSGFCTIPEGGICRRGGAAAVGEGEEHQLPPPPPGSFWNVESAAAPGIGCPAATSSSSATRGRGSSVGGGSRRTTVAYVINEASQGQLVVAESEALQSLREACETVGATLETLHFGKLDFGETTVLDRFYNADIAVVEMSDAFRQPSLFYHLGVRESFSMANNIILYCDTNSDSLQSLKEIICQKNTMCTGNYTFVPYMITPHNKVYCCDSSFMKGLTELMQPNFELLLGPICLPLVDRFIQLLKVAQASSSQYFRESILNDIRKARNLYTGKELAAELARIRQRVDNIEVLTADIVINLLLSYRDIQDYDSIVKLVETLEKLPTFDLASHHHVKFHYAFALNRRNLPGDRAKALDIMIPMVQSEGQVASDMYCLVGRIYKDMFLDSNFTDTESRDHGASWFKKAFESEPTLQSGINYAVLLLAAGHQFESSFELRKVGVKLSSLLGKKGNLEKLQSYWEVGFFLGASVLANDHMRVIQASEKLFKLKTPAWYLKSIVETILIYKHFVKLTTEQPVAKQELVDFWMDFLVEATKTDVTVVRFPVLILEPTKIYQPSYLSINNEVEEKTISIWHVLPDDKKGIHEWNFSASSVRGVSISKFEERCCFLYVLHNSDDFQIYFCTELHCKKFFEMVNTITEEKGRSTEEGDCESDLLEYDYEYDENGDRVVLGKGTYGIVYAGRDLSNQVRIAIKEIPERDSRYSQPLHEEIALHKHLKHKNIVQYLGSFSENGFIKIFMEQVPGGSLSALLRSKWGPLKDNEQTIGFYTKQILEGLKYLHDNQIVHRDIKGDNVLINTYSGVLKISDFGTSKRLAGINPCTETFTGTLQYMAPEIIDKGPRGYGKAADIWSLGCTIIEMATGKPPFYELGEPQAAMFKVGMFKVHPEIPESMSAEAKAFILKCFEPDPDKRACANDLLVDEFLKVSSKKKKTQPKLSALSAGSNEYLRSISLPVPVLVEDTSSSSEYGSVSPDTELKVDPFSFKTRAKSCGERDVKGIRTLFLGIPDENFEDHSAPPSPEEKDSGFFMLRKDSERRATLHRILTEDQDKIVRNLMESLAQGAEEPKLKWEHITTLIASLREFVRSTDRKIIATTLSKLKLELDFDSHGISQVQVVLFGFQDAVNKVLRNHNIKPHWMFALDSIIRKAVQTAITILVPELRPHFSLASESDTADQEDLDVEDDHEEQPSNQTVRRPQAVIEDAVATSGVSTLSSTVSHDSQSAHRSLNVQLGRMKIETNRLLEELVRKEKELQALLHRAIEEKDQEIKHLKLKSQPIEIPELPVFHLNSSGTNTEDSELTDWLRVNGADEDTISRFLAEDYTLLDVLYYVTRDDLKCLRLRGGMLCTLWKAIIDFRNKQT
# [3] = biological target: T3, Mitogen-activated protein kinase kinase kinase 6 (Homo sapiens, UniProt O95382); assay: Inhibition of ASK2 (unknown origin)
# T3 sequence (O95382 whole entry): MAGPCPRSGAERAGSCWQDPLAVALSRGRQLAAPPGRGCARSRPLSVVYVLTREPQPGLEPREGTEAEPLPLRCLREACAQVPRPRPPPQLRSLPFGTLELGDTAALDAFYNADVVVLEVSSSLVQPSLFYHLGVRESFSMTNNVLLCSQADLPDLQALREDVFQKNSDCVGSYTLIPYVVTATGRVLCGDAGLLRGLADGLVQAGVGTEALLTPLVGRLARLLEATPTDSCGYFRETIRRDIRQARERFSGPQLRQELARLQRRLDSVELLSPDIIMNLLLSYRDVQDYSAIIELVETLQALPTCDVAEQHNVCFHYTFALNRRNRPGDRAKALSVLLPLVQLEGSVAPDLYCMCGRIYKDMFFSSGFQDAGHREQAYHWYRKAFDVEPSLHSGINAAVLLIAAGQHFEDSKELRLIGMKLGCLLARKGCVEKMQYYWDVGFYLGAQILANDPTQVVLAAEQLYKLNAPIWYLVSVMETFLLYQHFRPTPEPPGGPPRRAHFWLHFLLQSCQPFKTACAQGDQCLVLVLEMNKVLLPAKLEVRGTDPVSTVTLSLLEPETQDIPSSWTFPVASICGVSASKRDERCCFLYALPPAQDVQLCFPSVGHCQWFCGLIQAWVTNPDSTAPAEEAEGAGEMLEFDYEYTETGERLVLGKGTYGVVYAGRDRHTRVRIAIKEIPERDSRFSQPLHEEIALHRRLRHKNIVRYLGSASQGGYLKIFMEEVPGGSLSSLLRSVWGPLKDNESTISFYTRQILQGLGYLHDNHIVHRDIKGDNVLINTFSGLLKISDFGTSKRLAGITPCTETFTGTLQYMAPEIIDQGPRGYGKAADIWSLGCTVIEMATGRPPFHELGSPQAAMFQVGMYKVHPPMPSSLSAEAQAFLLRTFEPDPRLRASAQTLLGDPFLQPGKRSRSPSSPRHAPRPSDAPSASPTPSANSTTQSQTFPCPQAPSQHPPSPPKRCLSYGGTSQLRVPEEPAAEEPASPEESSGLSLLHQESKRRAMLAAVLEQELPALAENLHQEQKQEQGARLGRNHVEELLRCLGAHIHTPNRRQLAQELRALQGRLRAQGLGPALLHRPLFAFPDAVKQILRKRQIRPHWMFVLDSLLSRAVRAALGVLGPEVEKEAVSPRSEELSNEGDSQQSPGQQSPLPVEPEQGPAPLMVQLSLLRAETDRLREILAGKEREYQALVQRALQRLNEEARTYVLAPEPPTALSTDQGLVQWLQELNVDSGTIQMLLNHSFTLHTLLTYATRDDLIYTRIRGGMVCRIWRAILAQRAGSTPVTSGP
# HepG2 [4] = assay: Induction of cell cycle arrest in human HepG2 cells assessed as accumulation at G0/G1 phase at 0.5 to 8 uM incubated for 24 hrs by propidium iodide staining based flow cytometry; assay type: functional; conditions: dose 0.5-8 µM
# HepG2 [5] = assay: Induction of cell cycle arrest in human HepG2 cells assessed as accumulation at G0/G1 phase at 16 uM incubated for 24 hrs by propidium iodide staining based flow cytometry (reference value: 38.34%); assay type: functional
# [6] = Inhibition of human full length recombinant CDK9/cyclin T1 using KTFCGTPEYLAPE as substrate incubated for 40 mins in presence of [gamma-33ATP] by radiometric scintillation counting analysis
Compound,IC50 [1],IC50 [2],IC50 [3],other results
CC(C)n1cnnc1-c1cccc(NC(=O)Nc2ncc3ccccc3n2)n1,4.22 µM,0.0657 µM,2.91 µM,
CC(C)n1cnnc1-c1cccc(NC(=O)Nc2nn(C)c3ccccc23)n1,,0.259 µM,,
CC(C)OC(=O)Nc1cccc(-c2nncn2C(C)C)n1,,0.473 µM,,
CC(C)n1cnnc1-c1cccc(NC(=O)Nc2nccc3ccccc23)n1,0.0852 µM,0.0485 µM,0.201 µM,
C[C@H](CO)n1cnnc1-c1cccc(NC(=O)Nc2nccc3ccccc23)n1,0.0637 µM,0.0379 µM,0.264 µM,
C[C@H](CO)n1cnnc1-c1cccc(NC(=O)Nc2ccc3ccccc3n2)n1,1.88 µM,0.0474 µM,2.86 µM,
CC(C)n1cnnc1-c1cccc(NC(=O)Nc2cnc3ccccn23)n1,,> 10 µM,,
CCc1cc(NC(=O)Nc2cccc(-c3nncn3C(C)C)n2)[nH]n1,,0.153 µM,,
CC(C)n1cnnc1-c1cccc(NC(=O)Nc2cncc3ccccc23)n1,,> 10 µM,,
CC(C)n1cnnc1-c1cccc(NC(=O)Nc2cccc(-c3cnn(C)c3)c2)n1,,2.12 µM,,
CC(C)n1cnnc1-c1cccc(NC(=O)Nc2ccc(-c3ccn(C)n3)cn2)n1,2.22 µM,0.0642 µM,2.78 µM,
CC(C)n1cnnc1-c1cccc(NC(=O)NCc2ccccc2)n1,,7.02 µM,,
CC(C)n1cnnc1-c1cccc(NC(=O)Nc2cnc3ccccc3n2)n1,6.8 µM,0.058 µM,4.86 µM,
Cc1cc(NC(=O)Nc2cccc(-c3nncn3C(C)C)n2)n(C)n1,,4.14 µM,,
CC(C)n1cnnc1-c1cccc(NC(=O)Nc2cc3ccccn3n2)n1,> 10 µM,0.0853 µM,4.99 µM,
CC(C)n1cnnc1-c1cccc(NC(=O)Nc2cccnc2)n1,,1.21 µM,,
C[C@H](CO)n1cnnc1-c1cccc(NC(=O)Nc2ncc3ccccc3n2)n1,5.77 µM,0.081 µM,7.17 µM,
CC(C)n1cnnc1-c1cccc(NC(=O)Nc2cc(C3CC3)n[nH]2)n1,,0.124 µM,,
C[C@H](CO)n1cnnc1-c1cccc(NC(=O)Nc2cnc3ccccc3n2)n1,> 10 µM,0.114 µM,> 10 µM,
CC(C)n1cnnc1-c1cccc(NC(=O)Nc2ccn[nH]2)n1,,0.0667 µM,,
CC(C)n1cnnc1-c1cccc(NC(=O)OCc2ccccc2)n1,,1.52 µM,,
CC(C)n1cnnc1-c1cccc(NC(=O)Nc2ccnc3ccccc23)n1,,3.26 µM,,

Compound,IC50 [1],IC50 [2],IC50 [3],other results
CC(C)c1cc(NC(=O)Nc2cccc(-c3nncn3C(C)C)n2)[nH]n1,,0.393 µM,,
CC(C)n1cnnc1-c1cccc(NC(=O)Nc2cnn3ccccc23)n1,,3.65 µM,,
CC(C)n1cnnc1-c1cccc(NC(=O)Nc2nc3ccccc3[nH]2)n1,,0.111 µM,,
CC(C)n1cnnc1-c1cccc(NC(=O)Nc2ccncc2)n1,,0.337 µM,,
CC(C)n1cnnc1-c1cccc(NC(=O)N(C)c2ccc3ccccc3n2)n1,,0.319 µM,,
CC(C)n1cnnc1-c1cccc(N(C)C(=O)N(C)c2cc3ccccn3n2)n1,,6.64 µM,,
CC(C)n1cnnc1-c1cccc(NC(=O)Nc2ccc3ccccc3n2)n1,4.56 µM,0.0691 µM,2.34 µM,
Cc1cc(F)c(C(=O)Nc2cccc(-c3nncn3C(C)C)n2)cc1-n1cnc(C2CC2)c1,,,,Activity (HepG2 [4]): inactive; Activity (HepG2 [5]): Active
CC(C)n1cnnc1-c1cccc(NC(=O)Nc2cnn(C)c2)n1,,1.86 µM,,
CC(C)n1cnnc1-c1cccc(NC(=O)Nc2ncc3[nH]cnc3n2)n1,1.21 µM,0.0326 µM,0.742 µM,
CC(C)n1cnnc1-c1cccc(NC(=O)Nc2ccc(-c3cnn(C)c3)cn2)n1,,0.0642 µM,,
CC(C)n1cnnc1-c1cccc(NC(=O)Nc2cnccn2)n1,,0.0903 µM,,
CC(C)n1cnnc1-c1cccc(NC(=O)Nc2ncnc3ccccc23)n1,0.421 µM,0.071 µM,1.48 µM,
Cc1cc(NC(=O)Nc2cccc(-c3nncn3C(C)C)n2)[nH]n1,,0.142 µM,,
CC(C)n1cnnc1-c1cccc(NC(=O)Nc2cc3ccccc3cn2)n1,1.36 µM,0.0506 µM,1.59 µM,
CC(C)n1cnnc1-c1cccc(NC(=O)Nc2cc(C3CC3)nn2C)n1,,> 10 µM,,
CC(C)n1cnnc1-c1cccc(NC(=O)Nc2ccccc2)n1,,2.84 µM,,
CC(C)n1cnnc1-c1cccc(NC(=O)Nc2ccc(-c3cnn(C)c3)cc2)n1,,0.245 µM,,
CC(C)n1cnnc1-c1cccc(NC(=O)Oc2ccccc2)n1,,> 10 µM,,
CN[C@@H]1C[C@H]2O[C@@](C)([C@@H]1OC)n1c3ccccc3c3c4c(c5c6ccccc6n2c5c31)C(=O)NC4 [STAUROSPORINE],,,,IC50 [6]: 0.0601 µM
Cc1cc(NC(=O)Nc2cccc(-c3nncn3C(C)C)n2)nn1C,,0.143 µM,,
CC(C)n1cnnc1-c1cccc(NC(=O)Nc2ccccn2)n1,0.734 µM,0.0434 µM,1.09 µM,

# From ChEMBL document CHEMBL4680251, “Discovery of a 2-pyridinyl urea-containing compound YD57 as a potent inhibitor of apoptosis signal-regulating kinase 1 (ASK1)” (Eur J Med Chem, 2020)
